Assays:
Jurkat cells = assay: Jurkat toxicity, Cell Titer Glo assay; type: cell-based; conditions: 18 hours incubation
Experimental: Seed 50 μl cells (1×10^6/ml) into each well containing 50 μl compound. […] Shake plates for 1 minute to mix cells and compound. Incubate plates at 37° C. […] Next day, harvest 50 μl cells from each well, add to 50 μl Cell Titer Glo reagent ([…]). Shake plates for 1 minute. Read on luminometer.

B-cell line BJAB = assay: BJAB toxicity, Cell Titer Glo assay; type: cell-based; conditions: 18 hours incubation
Experimental: Seed 50 μl cells (1×10^6/ml) into each well containing 50 μl compound. The final vehicle concentration is 0.5% DMSO, 1.5% MeOH. Shake plates for 1 minute to mix cells and compound. Incubate plates at 37° C. (5% CO2) for 18 hours. Next day, harvest 50 μl cells from each well, add to 50 μl Cell Titer Glo reagent ([…]). Shake plates for 1 minute. Read on luminometer.

[1] = tested on: bone marrow derived mast cells (BMMC); assay: BMMC high cell density IgE activation: hexosaminidase; type: cell-based, mouse; conditions: anti-IgE, second part of TABLE 1, read-out: BMMC anti-IgE hexos. IC50
Outline: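 IgE-sensitized BMMC at 1-3×10^6 cells/ml preincubated 1 hour at 37° C. with compound (0.5% DMSO), then stimulated 1 hour with DNP-BSA (6× stimulus 60 ng/ml). Supernatant hexosaminidase measured with 2 mM 4-methylumbelliferyl-N-acetyl-glucosaminide substrate at 37° C., read at 5–30 minutes.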

[2] = tested on: bone marrow derived mast cells (BMMC); assay: BMMC high cell density IgE activation: IL-6; type: cell-based, mouse; conditions: anti-IgE, second part of TABLE 1
Outline: (§1)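 IgE-sensitized BMMC (1-3×10^6 cells/ml, MT buffer) were pretreated with compound for 1 h at 37 °C in 0.5% DMSO, then stimulated with DNP-BSA (6× stimulus, 60 ng/ml) for 1 h. Supernatant was taken, and cells were re-incubated 4–5 h in WEI-conditioned medium with compound. Mediators were quantified by ELISA.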

[3] = tested on: cultured human mast cells (CHMC); assay: CHMC high cell density IgE activation: tryptase; type: cell-based; conditions: anti-IgE activation
Outline: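 IgE-sensitized CHMC at 1-2×10^6 cells/ml in MT buffer were pretreated with compound for 1 h at 37 °C (0.5% DMSO final), then stimulated with anti-IgE for 1 h. Tryptase was measured in 1:500-diluted supernatant. Pellets were re-incubated for 7 h with compound in CM media, and supernatants were assayed by ELISA.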

[4] = tested on: cultured human mast cells (CHMC); assay: CHMC high cell density IgE activation: hexos (hexosaminidase) release; type: cell-based; conditions: anti-IgE activation
Outline: (§2)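 IgE-sensitized CHMC at 1-2×10^6 cells/ml were pretreated with compound for 1 h at 37 °C (0.5% DMSO final), then anti-IgE-stimulated for 1 h and supernatant collected. Hexosaminidase was read with a fluorogenic substrate. Pellets were re-incubated 7 h with compound before supernatant ELISAs.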

[5] = tested on: bone marrow derived mast cells (BMMC); assay: BMMC high cell density IgE activation: TNFalpha; type: cell-based, mouse; conditions: anti-IgE, second part of TABLE 1, read-out: BMMC anti-IgE TNF-alpha IC50
Outline: as §1

BMMC cells = assay: Phosphorylation of proteins downstream of Syk kinase in the IgE receptor cascade, activated BMMC cells; type: cell-based, mouse; conditions: varying concentrations, FIG. 7
CHMC cells = assay: Phosphorylation of proteins downstream of Syk / LYN kinase in the FcεRI cascade, activated CHMC cells; type: cell-based, human; conditions: varying concentrations, FIG. 10
[6] = tested on: cultured human mast cells (CHMC); assay: CHMC high cell density IgE activation: TNFalpha; type: cell-based; conditions: anti-IgE activation; read-out: CHMC high density TNF-alpha
Outline: as §2

[7] = tested on: Salmonella-Escherichia coli tester strains

Structure (SMILES) | IC50 (Jurkat cells) [nM] | IC50 (B-cell line BJAB) [nM] | IC50 [1] [nM] | IC50 [2] [nM] | IC50 [3] [nM] | IC50 [4] [nM] | IC50 [5] [nM] | phosphorylation of various proteins downstream of Syk kinase (BMMC cells) | phosphorylation of proteins downstream of Syk kinase (CHMC cells) | IC50 [6] [nM] | Ames test result [7]
CNC(=O)COc1cccc(Nc2ncc(F)c(Nc3cccc(O)c3)n2)c1 [R926508, 5-Fluoro-N4-(3-hydroxyphenyl)-N2-[3-(N-methylamino)carbonylmethyleneoxyphenyl]-2,4-pyrimidinediamine] | > 10000 | > 10000 | 86 | 26 | 434 | 170 | 54 | – | – | – | –
CNC(=O)COc1cccc(Nc2ncc(F)c(Nc3ccc4c(c3)NCCO4)n2)c1 [R921219, N4-(1,4-Benzoxazin-6-yl)-5-fluoro-N2-[3-(N-methylamino)carbonylmethyleneoxyphenyl]-2,4-pyrimidinediamine] | > 10000 | > 10000 | – | – | – | – | 39 | inhibit | inhibit | 190 | test positive in tester strain TA1537, with and without metabolic activation
